Laboratory results from US20230391783A1, “COMPOUND CONTAINING 2,4-THIAZOLE RING, PREPARATION METHOD THEREFOR, AND APPLICATION THEREOF” (SHANDONG UNIVERSITY, priority 2021, published 2023).

What was measured:
[1] = tested on: lymphocytes (fresh spleen cells); experiment: Lymphocyte proliferation assay (ConA-induced spleen cells); assay type: cell-based, rat; conditions: for IC50: Rattus norvegicus, inhibition of lymphocyte proliferation, 5 μg/mL ConA; for IC50 / Inhibition rate (%): 48 hours; for Inhibition rate (%): lymphocyte proliferation induced with 5 μg/mL ConA, test concentration not given
Protocol: (§1) Lymphocytotoxicity test: rats were euthanized by spinal dislocation method, their spleens were aseptically removed and ground to make a single cell suspension. After removing red blood cells with 2 mL of red blood cell lysis buffer, the cell concentration was adjusted to 2×10^6 cells/mL using RPMI-1640 medium containing 10% fetal bovine serum (FBS). Next, 100 μL of the 2×10^6 cells/mL cell suspension and 100 μL of the appropriate concentration of the tested compound were added to each well of a 96-well plate, and the plate was incubated at 37° C. with 5% CO2 for 48 hours. At the end of the incubation period, 10 μL of CCK8 was added to each well, and the plate was returned to the incubator for 5-7 hours. The OD450 value was then measured at 450 nm using an enzyme-linked immunosorbent assay reader.
Lymphocyte proliferation assay: fresh spleen cells at a concentration of 2×10^6 cells/mL were incubated for 48 hours in an incubator maintained at 37° C. and 5% CO2 for 48 hours, and the culture medium was induced for cell proliferation with 5 μg/mL of ConA, and the appropriate concentration of the tested compound was added to test its inhibitory activity on lymphocyte proliferation. The test results of some compounds are shown in the table below and figures accompanying the application: […]

[2] = tested on: lymphocytes; experiment: Lymphocytotoxicity test (CCK8, no stimulation factor); assay type: cell-based, rat
Protocol: as §1
In addition, the toxicity of the compounds on lymphocytes was also tested in this example. The testing method was as follows: the cell density was 3×10^6 cells/mL, and 100 μL of the cell suspension containing 3×10^5 cells/well was added to each well of a 96-well plate without any stimulation factor.

[3] = tested on: LPS-induced inflammatory factors IL-6, IL-2, TNF-a and IFN-y in serum; experiment: Inhibition of LPS-induced cytokine storm in mice; assay type: in vivo
Protocol: A total of 15 healthy male mice were randomly and equally divided into 3 groups, namely, control group, model group and drug administration group, with 5 mice in each group, labeled and their body weight recorded. Respectively administered: the control group and the model group were injected with normal saline via tail vein respectively, and the administration group was injected with the prepared in Examples 1-4 via tail vein respectively; the dose was 10 mg/kg (2 mg/mL; 50 μL/10 g). One hour later, LPS was injected intraperitoneally at 3 mg/kg (0.3 mg/mL, 100 μL/10 g). A second injection of the drug was given 5 hours later. Blood was collected from the mice 9 hours later, followed by euthanasia.
(§2) ELISA was performed to determine levels of IL-6, IL-2, TNF-a and IFN-y in serum.
Histopathological examination was performed on the administration group of compound IA-3: mouse lungs were fixed with 4% paraformaldehyde, and histopathological changes were observed by HE.

[4] = tested on: CD-3 antibody-induced inflammatory factors IL-6, IL-2, TNF-a and IFN-y in serum; experiment: Inhibition of CD-3 antibody-induced cytokine storm in mice; assay type: in vivo; conditions: 10 mg/kg via tail vein, two injections, CD-3 antibody 100 μg/kg i.p., ELISA (FIG. 5)
Protocol: A total of 15 healthy male mice were randomly and equally divided into 3 groups, namely, control group, model group and drug administration group, with 5 mice in each group, labeled and their body weight recorded. Respectively administered: the control group and the model group were injected with normal saline via tail vein respectively, and the administration group was injected with the compounds prepared in Examples 1-4 via tail vein respectively; the dose was 10 mg/kg (2 mg/mL; 50 μL/10 g). CD-3 antibody was injected intraperitoneally, 100 μg/kg, after 0.5 hours. A second injection of the drug was given 5 hours later. Blood was collected from the mice 9 hours later, followed by euthanasia.
as §2

[5] = Pharmacokinetics and oral bioavailability in Wistar rats; assay type: in vivo; conditions: rat
Protocol: To prepare the standard series solution, a suitable amount of compound IA-3 was accurately weighed and placed in a 100 mL volumetric flask. The compound was dissolved in acetonitrile and diluted to the mark to produce a 25.0 μg/mL stock solution. The solution was mixed thoroughly by shaking and used for further analysis. An appropriate amount of the stock solution was taken separately, diluted with acetonitrile, and made up to the mark to prepare a series of standard solutions with concentrations of 5, 10, 25, 50, 100, 250, 500, and 1000 ng/mL. The solutions were stored in a refrigerator at 4° C. for later use.
Preparation of internal standard solution: a suitable amount of internal standard was accurately weighed and placed in a 100 mL volumetric flask. The internal standard was dissolved in acetonitrile and diluted to the mark to produce a 25 μg/mL stock solution. The solution was mixed thoroughly by shaking and used for further analysis. An accurately weighed amount of the stock solution was taken again and diluted with acetonitrile to prepare the internal standard reference solution at a concentration of 50 ng/mL. The solution was stored in a refrigerator at 4° C. for later use.
Preparation of plasma samples: 80 μL of rat plasma was taken, and 120 μL of internal standard was added. The mixture was vortexed for 2 min and centrifuged for 10 min. Then, 140 μL of the supernatant was collected and centrifuged for another 10 min. Finally, 10 μL of the supernatant was injected for analysis.
Standard Curve: 64 μL of blank rat plasma was mixed with 16 μL of the test compound standard series solution and 120 μL of acetonitrile solution containing the internal standard. The mixture was vortexed for 2 minutes and centrifuged for 10 minutes. Then, 140 μL of the supernatant was taken and centrifuged for another 10 minutes, 10 μL of the sample was injected and analyzed with HPLC-HR-MS. Instrumentation obtained the linear regression equation as the standard curve.
Sampling: eight healthy male Wistar rats were randomly divided into two groups (oral group and intravenous group), with four rats in each group. Rats were fasted for 12 h and provided with free access to water before the experiment. The oral group was administered with the test drug at a dose of 5 mg/kg, and the intravenous group was administered with 1 mg/kg. Blood samples of approximately 0.4 mL were collected from the rat orbital vein before and at 5 min, 15 min, 30 min, 1 h, 1.5 h, 2 h, 4 h, 6 h, 8 h, 10 h, and 12 h after administration, and immediately transferred to heparinized centrifuge tubes. Plasma was separated by centrifugation.
Sample determination and data processing: the rat plasma samples were processed according to the “Preparation of plasma samples” procedure and analyzed under the conditions described above. The non-compartmental model was applied to process the drug concentration data mentioned above, and the pharmacokinetic parameters were calculated using the DAD 2.0 software. The bioavailability was calculated according to the formula F=AUCig*Div/AUCiv*Dig*100%.

[6] = male, Wistar, plasma, iv, single injection 1 mg/kg
[7] = male, Wistar, plasma, single oral administration 5 mg/kg
[8] = single oral administration 5 mg/kg

O=C(NCc1cccnc1)c1csc(-c2cnn3cccnc23)n1 [IA-3]
IC50 [1]: 0.0132 ± 0.00205 µM
Inhibition rate (%) [1]: 97.09%
inhibitory effect on lymphocyte proliferation (in words) ([1]; rat lymphocytes): particularly significant inhibitory effect on lymphocytes
safety index (in words) [2]: high safety index
toxicity on lymphocytes (in words) ([2]; 5, 2.5, 1.25 and 0.625 μM, no stimulation factor (FIG. 2)): less cytotoxicity
reduction of LPS-induced IL-6, IL-2, TNF-a and IFN-y levels in serum ([3]; 10 mg/kg via tail vein, two injections, LPS 3 mg/kg i.p., ELISA (FIG. 3)): most significant effect on the reduction of the above factors
lung histopathology (H&E) ([3]; LPS model, 10 mg/kg via tail vein (FIG. 4)): reduced the severity of lung pathology
reduction of CD-3 antibody-induced IL-6, IL-2, TNF-a and IFN-y levels in serum [4]: most significant effect on the reduction of the above factors
AUC(0-t) [5, 6]: 0.717 µg·h/mL
MRT [5, 6]: 30.4 min
clearance [5, 6]: 2.71 L/h/kg
half-life [5, 6]: 21.6 min
Vd ([5]; male, Wistar, plasma, iv, single injection 1 mg/kg, read-out: Vss): 1.08 L/kg
bioavailability ([5]; male, Wistar, plasma, oral, intragastric 5 mg/kg vs intravenous 1 mg/kg, read-out: relative oral bioavailability): 22.1%
AUC(0-inf) [5, 7]: 0.408 µg·h/mL
AUC(0-t) [5, 7]: 0.408 µg·h/mL
MRT [5, 7]: 76.2 min
half-life [5, 7]: 125 min
CL [5, 8]: 23 L/h/kg
Vss [5, 8]: 69.5 L/kg

CCC(CCC(C)C1CCC2C3CC=C4CC(OC(=O)c5csc(C(=O)c6c[nH]c7ccccc67)n5)CCC4(C)C3CCC12C)C(C)C (stereo not drawn) [IIA-9]
Inhibition rate (%) [1]: 48.2%

CC1CCC2(OC1)OC1CC3C4CC=C5CC(NC(=O)c6csc(C(=O)c7c[nH]c8ccccc78)n6)CCC5(C)C4CCC3(C)C1C2C (stereo not drawn) [IIA-10]
Inhibition rate (%) [1]: 23.57%

Cc1c(COC(=O)c2csc(C(=O)c3c[nH]c4ccccc34)n2)cccc1-c1ccccc1 [IIA-11]
Inhibition rate (%) [1]: 25.08%

CC(=O)NCCNC(=O)c1csc(C(=O)c2c[nH]c3ccccc23)n1 [IIA-12]
Inhibition rate (%) [1]: 27.93%

COC(=O)C(CO)NC(=O)c1csc(C(=O)c2c[nH]c3ccccc23)n1 (stereo not drawn) [IIA-13]
Inhibition rate (%) [1]: 43.99%

O=C(NCc1ccc(F)cc1F)c1csc(C(=O)c2c[nH]c3ccccc23)n1 [IIA-14]
Inhibition rate (%) [1]: 37.99%

O=C(NCCCN1CCCC1)c1csc(C(=O)c2c[nH]c3ccccc23)n1 [IIA-15]
Inhibition rate (%) [1]: 28.53%

O=C(Nc1cccnc1)c1csc(C(=O)c2c[nH]c3ccccc23)n1 [IIA-17]
Inhibition rate (%) [1]: 59.31%

O=C(c1nc(C(=O)N2CCC[C@H]2c2ccccc2)cs1)c1c[nH]c2ccccc12 [IIA-18]
Inhibition rate (%) [1]: 50.6%

O=C(NCc1ccccc1)c1csc(C(=O)c2c[nH]c3ccccc23)n1 [IIA-19]
Inhibition rate (%) [1]: 46.55%

O=C(NCCc1ccncc1)c1csc(C(=O)c2c[nH]c3ccccc23)n1 [IIA-20]
Inhibition rate (%) [1]: 42.64%

O=C(c1nc(C(=O)N2CCC[C@H]2c2ccncc2)cs1)c1c[nH]c2ccccc12 [IIA-21]
Inhibition rate (%) [1]: 54.35%

O=C(c1nc(C(=O)N2CCCCC2C(=O)O)cs1)c1c[nH]c2ccccc12 (stereo not drawn) [IIA-22]
IC50 [1]: 0.479 ± 0.00988 µM
Inhibition rate (%) [1]: 53.75%

O=C(c1nc(C(=O)N2C[C@H](O)C[C@H]2C(=O)O)cs1)c1c[nH]c2ccccc12 [IIA-23]
IC50 [1]: 0.439 ± 0.0253 µM
Inhibition rate (%) [1]: 58.56%

O=C(NC(CO)C(=O)O)c1csc(C(=O)c2c[nH]c3ccccc23)n1 (stereo not drawn) [IIA-24]
IC50 [1]: 0.421 ± 0.0199 µM
Inhibition rate (%) [1]: 59.91%

COC(=O)C1CCCCN1C(=O)c1csc(C(=O)c2c[nH]c3ccccc23)n1 (stereo not drawn) [IIA-25]
Inhibition rate (%) [1]: 49.85%

COC(=O)[C@@H]1C[C@@H](O)CN1C(=O)c1csc(C(=O)c2c[nH]c3ccccc23)n1 [IIA-26]
Inhibition rate (%) [1]: 45.05%

O=C(NCC(F)(F)F)c1csc(C(=O)c2c[nH]c3ccccc23)n1 [IIA-27]
Inhibition rate (%) [1]: 51.8%

O=C(c1nc(C(=O)N2CCCC2c2cc(F)ncc2F)cs1)c1c[nH]c2ccccc12 (stereo not drawn) [IIA-28]
Inhibition rate (%) [1]: 54.05%

O=C(NCCC(F)(F)F)c1csc(C(=O)c2c[nH]c3ccccc23)n1 [IIA-29]
Inhibition rate (%) [1]: 43.54%

CC(C)=CCC/C(C)=C/CNC(=O)c1csc(C(=O)c2c[nH]c3ccccc23)n1 [IIA-30]
Inhibition rate (%) [1]: 26.88%

O=C(OCc1cn(CCc2ccccc2)nn1)c1csc(C(=O)c2c[nH]c3ccccc23)n1 [IIB-1]
Inhibition rate (%) [1]: 45.65%

O=C(OCc1cn(Cc2ccc3ccccc3c2)nn1)c1csc(C(=O)c2c[nH]c3ccccc23)n1 [IIB-2]
Inhibition rate (%) [1]: 49.4%

O=C(OCc1cn(CCCCCCBr)nn1)c1csc(C(=O)c2c[nH]c3ccccc23)n1 [IIB-3]
IC50 [1]: 0.468 ± 0.0201 µM
Inhibition rate (%) [1]: 39.79%

O=C(OCc1cn(CCCCCCO)nn1)c1csc(C(=O)c2c[nH]c3ccccc23)n1 [IIB-4]
Inhibition rate (%) [1]: 21.17%

O=C(OCc1cn(CC23CC4CC(CC(C4)C2)C3)nn1)c1csc(C(=O)c2c[nH]c3ccccc23)n1 [IIB-5]
Inhibition rate (%) [1]: 59.01%

COC(=O)c1csc(C(=O)c2c[nH]c3ccccc23)n1 [ITE, reference compound]
Inhibition rate (%) [1]: 57.96%

Nc1ccccc1C(=O)CC(N)C(=O)O (stereo not drawn) [KYN, kynurenine, reference compound]
Inhibition rate (%) [1]: 51.65%

C=CC[C@@H]1/C=C(\C)C[C@H](C)C[C@H](OC)[C@H]2O[C@@](O)(C(=O)C(=O)N3CCCC[C@H]3C(=O)O[C@H](/C(C)=C/[C@@H]3CC[C@@H](O)[C@H](OC)C3)[C@H](C)[C@@H](O)CC1=O)[C@H](C)C[C@@H]2OC [Tacrolimus, reference compound]
IC50 [1]: 0.504 ± 0.0162 µM
Inhibition rate (%) [1]: 57.54%
